In patent US20260137714A1, “METHODS AND COMPOSITIONS FOR TREATMENT OF OPHTHALMIC DISEASE” (Design Therapeutics, Inc., priority 2022, published 2026):

Legend:
[1] = Compound solubility in water using in situ salt formation with aqueous HCl; type: physicochemical; conditions: for Result: appearance at the final concentration; for solubility: aqueous buffer, thermodynamic from solid, water with aqueous HCl, in situ salt formation, started at 10 mg/ml, minimum tested 1 mg/ml, read-out: Final Concentration; for pH after aq. NaOH: pH of the solution after adjustment with aq. NaOH; for pH: pH of the solution at the end of the experiment, before any aq. NaOH
Procedure: To determine solubility of candidate compounds, solubility of the compounds was determined at a concentration of 10 mg/ml using in situ salt formation with aqueous HCl. First, 0.5 ml of sterile water was added to 10 mg of dry compound, vortexed, and briefly centrifuged. Next, 0.5 equivalents of 0.025 M HCl were added to the mixture followed by a volume of water that totaled 1 ml. The mixture was stirred continuously for 0.5 to 24 h. […] If the solution was not clear, additional water and/or HCl was added, along with continuous stirring and vortexing until it was determined that the compound had completely dissolved or was refractory to dissolution. The minimum concentration tested was 1 mg/ml. pH values were assessed at the end of the experiment.

[2] = test system: Immortalized Fuchs endothelial corneal dystrophy cells (F35T); experiment: In vitro foci assay (nuclear foci by FISH with (CAG)10-Cy3 oligonucleotide); type: cell-based; conditions: 48 h treatment, 3000 to 1 nM
Procedure: Immortalized Fuchs endothelial corneal dystrophy cells (F35T) were seeded in black-sided clear-bottomed 96 well plates at 5000 cells per well 16 hours prior to compound treatment. Compounds were dissolved in DMSO to 1 mM and diluted to a final concentration of 3000 to 1 nM in F35T cell culture media. Diluted compounds were added to the F35T cells and incubated for 48 h.
Following treatment, cells were fixed in 4% paraformaldehyde for 20 min, washed twice with PBS, and permeabilized with 70% ethanol at −20 deg C. for 16 h. Following permeabilization, cells were washed twice with PBS then hydrated with 30% formamide plus 2×SSC buffer for 10 min. Nuclear foci were labeled using fluorescent in situ hybridization with a (CAG)10-Cy3 oligonucleotide. Images were collected and automated image analysis was performed on a BioTEK Cytation 5.

[3] = Ex vivo bovine eye penetration of compounds formulated in water; type: in vitro ADME; conditions: for Cornea, R1 / Descemet Membrane/endothelial cells, R1: bovine eye, 30 min at room temperature, LC-MS, replicate R1
Procedure: Freshly enucleated bovine eyes (Nebraska Scientific) were treated with compound as described previously (Luschmann et al., “Developing an in situ nanosuspension: a novel approach towards the efficient administration of poorly soluble drugs at the anterior eye”, European Journal of Pharmaceutical Sciences (2013)). Individual eyes were rinsed with 10 mL of sterile 0.9% saline then placed in the bottom of a 600 mL glass beaker (Pyrex). A borosilicate glass powder funnel with a 26 mm diameter stem (Eisco Labs) was gently rested on top of the eye with the cornea centered in the cylindrical opening, creating a sealed dosing chamber in which solutions were applied. Eyes were equilibrated in sterile 0.9% saline at room temperature for 20 min then decanted. 500 μL of 0.1 to 0.3% GeneTAC compound was applied to the cornea followed by 167 μL of sterile water to mimic the instillation a 30 μL eye drop into 10 μL of tear fluid. Compound was incubated for 30 min at room temperature after which the funnel was removed. Next, eyes were washed twice with 10 ml of 5.2% aqueous mannitol solution to remove residual compound. Aqueous humor was recovered using a 28-gauge needle and snap frozen in liquid nitrogen. The cornea was then surgically excised, and the Descemet membrane and corneal endothelium (DM/CE) were removed with fine forceps under a dissecting microscope and snap frozen in liquid nitrogen. Compound abundance was quantified in aqueous humor, anterior cornea, and DM/CE using liquid chromatography-mass spectrometry.

SMILES	Result [1]	solubility [1] [µg/mL]	pH after aq. NaOH [1]	pH [1]	Cornea, R1 [3] [nM]	Descemet Membrane/endothelial cells, R1 [3]	IC50 [2] [µM]	Concentrations reached in corneal epithelium and stroma and in Descemet membrane and endothelium, relative to IC50 ([3]; FIG. 1, ex vivo bovine eye distribution)
Cn1cc(NC(=O)c2nc(NC(=O)CCNC(=O)c3cc(NC(=O)c4nccn4C)cn3C)cn2C)cc1C(=O)NCCCC(=O)Nc1cn(C)c(C(=O)NCCC(=O)Nc2cc(C(=O)Nc3cn(C)c(C(=O)NCCC(=O)N4CCC(C5CNC5)CC4)n3)n(C)c2)n1 [Compound 204]	Clear solution	≥ 3780	6.73	2.32	–	–	0.518	–
COCCOCCOCCOCCN(CCCNC(=O)c1nc(NC(=O)c2cc(NC(=O)CCNC(=O)c3nc(NC(=O)CCCNC(=O)c4cc(NC(=O)c5nc(NC(=O)CCNC(=O)c6cc(NC(=O)c7nccn7C)cn6C)cn5C)cn4C)cn3C)cn2C)cn1C)CCOCCOCCOCCOC [Compound 201]	Clear solution	≥ 10000	–	6.04	798	46 nM	0.167	above the IC50 for preventing foci formation as well as above the IC50 for preventing abnormal splicing events
CN(C)CCOCCNC(=O)c1nc(NC(=O)c2cc(NC(=O)CCNC(=O)c3nc(NC(=O)CCCNC(=O)c4cc(NC(=O)c5nc(NC(=O)CCNC(=O)c6cc(NC(=O)c7nccn7C)cn6C)cn5C)cn4C)cn3C)cn2C)cn1C [Compound 205]	Clear solution	≥ 1000	–	7.62	–	–	0.065	–
Cn1cc(NC(=O)c2nc(NC(=O)CCNC(=O)c3cc(NC(=O)c4nccn4C)cn3C)cn2C)cc1C(=O)NCCCC(=O)Nc1cn(C)c(C(=O)NCCC(=O)Nc2cc(C(=O)Nc3cn(C)c(C(=O)NCCC(=O)N4CCC5(CC4)CNC5)n3)n(C)c2)n1 [Compound 208]	Clear solution	≥ 3530	6.07	2.75	–	–	0.186	–
CN1CC(C2CCN(C(=O)CCNC(=O)c3nc(NC(=O)c4cc(NC(=O)CCNC(=O)c5nc(NC(=O)CCCNC(=O)c6cc(NC(=O)c7nc(NC(=O)CCNC(=O)c8cc(NC(=O)c9nccn9C)cn8C)cn7C)cn6C)cn5C)cn4C)cn3C)CC2)C1 [Compound 203]	Clear solution	≥ 3180	–	8.04	–	–	0.384	–
CN1CC2(CCN(C(=O)CCNC(=O)c3nc(NC(=O)c4cc(NC(=O)CCNC(=O)c5nc(NC(=O)CCCNC(=O)c6cc(NC(=O)c7nc(NC(=O)CCNC(=O)c8cc(NC(=O)c9nccn9C)cn8C)cn7C)cn6C)cn5C)cn4C)cn3C)CC2)C1 [Compound 202]	Clear solution	≥ 4030	6.24	3.10	–	–	0.213	–
CN1CCN(C(=O)CCNC(=O)c2nc(NC(=O)c3cc(NC(=O)CCNC(=O)c4nc(NC(=O)[C@H](N)CCNC(=O)c5cc(NC(=O)c6nc(NC(=O)CCNC(=O)c7cc(NC(=O)c8nccn8C)cn7C)cn6C)cn5C)cn4C)cn3C)cn2C)CC1 [Compound 209]	Clear solution	≥ 10000	–	2.21	–	–	1.65	–
Cn1cc(NC(=O)c2nc(NC(=O)CCNC(=O)c3cc(NC(=O)c4nccn4C)cn3C)cn2C)cc1C(=O)NCCCC(=O)Nc1cn(C)c(C(=O)NCCC(=O)Nc2cc(C(=O)Nc3cn(C)c(C(=O)NCCC(=O)N4CCC(C#CC#CC5CCNCC5)CC4)n3)n(C)c2)n1 [Compound 207]	Clear solution	≥ 10000	–	–	–	–	0.033	–
Cn1cc(NC(=O)c2nccn2C)cc1C(=O)NCCC(=O)Nc1cn(C)c(C(=O)Nc2cc(C(=O)NCC[C@@H](N)C(=O)Nc3cn(C)c(C(=O)NCCC(=O)Nc4cc(C(=O)Nc5cn(C)c(C(=O)NCCC(=O)N6CCC(C#CC#CC7CCNCC7)CC6)n5)n(C)c4)n3)n(C)c2)n1 [Compound 210]	Clear solution	≥ 10000	–	2.14	–	–	0.715	–
Cn1cc(NC(=O)c2nc(NC(=O)CCNC(=O)c3cc(NC(=O)c4nccn4C)cn3C)cn2C)cc1C(=O)NCCCC(=O)Nc1cn(C)c(C(=O)NCCC(=O)Nc2cc(C(=O)Nc3cn(C)c(C(=O)NCCCN4CCOCC4)n3)n(C)c2)n1 [Compound 206]	Clear solution	≥ 1000	–	4.96	–	–	0.172	–

Further lines, with some results ahead:

Result [1]	solubility [1] [µg/mL]	pH after aq. NaOH [1]	pH [1]	Cornea, R1 [3] [nM]	Descemet Membrane/endothelial cells, R1 [3]	SMILES	IC50 [2] [µM]	Concentrations reached in corneal epithelium and stroma and in Descemet membrane and endothelium, relative to IC50 ([3]; FIG. 1, ex vivo bovine eye distribution)
Clear solution	≥ 3210	–	6.64	50	BQL	Cn1cc(NC(=O)c2nc(NC(=O)CCNC(=O)c3cc(NC(=O)c4nccn4C)cn3C)cn2C)cc1C(=O)NCCCC(=O)Nc1cn(C)c(C(=O)NCCC(=O)Nc2cc(C(=O)Nc3cn(C)c(C(=O)NCCC(=O)N4CCC(N5CCNCC5)CC4)n3)n(C)c2)n1 [Compound 213]	0.892	–
Clear solution	≥ 10000	–	2.14	–	–	CN(C)CCCCNC(=O)c1nc(NC(=O)c2cc(NC(=O)CCNC(=O)c3nc(NC(=O)[C@H](N)CCNC(=O)c4cc(NC(=O)c5nc(NC(=O)CCNC(=O)c6cc(NC(=O)c7nccn7C)cn6C)cn5C)cn4C)cn3C)cn2C)cn1C [Compound 211]	1.65	–
Clear solution	≥ 10000	–	2.16	–	–	CCCCn1cc(NC(=O)c2nc(NC(=O)CCNC(=O)c3cc(NC(=O)c4nccn4C)cn3C)cn2C)cc1C(=O)NCC[C@@H](N)C(=O)Nc1cn(C)c(C(=O)NCCC(=O)Nc2cc(C(=O)Nc3cn(C)c(C(=O)NCCC(=O)N4CCN(C)CC4)n3)n(C)c2)n1 [Compound 214]	0.237	–
Clear solution	≥ 10000	–	1.97	–	–	COCCOCCOCCOCCOCCOCCOc1ccc(C#CCNCCCNC(=O)c2nc(NC(=O)c3cc(NC(=O)CCNC(=O)c4nc(NC(=O)CCCNC(=O)c5cc(NC(=O)c6nc(NC(=O)CCNC(=O)c7cc(NC(=O)c8nccn8C)cn7C)cn6C)cn5C)cn4C)cn3C)cn2C)cc1 [Compound 212]	0.378	–
